The values that follow are results of earlier work, collected in patent US7488755B2, “Derivatives of glycinergic R(+)-2-amino-3-hydroxypropanoic acid” (Prestwick Pharmaceuticals, Inc., priority 2002, dated 2009).

Series [1] concerns schizophrenic patients. The settings on record: very high oral doses (>30 g/day).
Series [2] has as its system schizophrenia patients. The conditions noted are these: 2 g/day, double-blind clinical trial, also in patients with little response to conventional antipsychotics.

In the case of `NCC(=O)O` [glycine], the “effect on negative symptoms in schizophrenic patients” value in series [1] is listed as “improvement in the negative symptoms”.
Consider `N[C@H](CO)C(=O)O` [D-serine], for which, in series [2], the “efficacy in the treatment of schizophrenia” value was “effective in the treatment of schizophrenia”.
